Test results: patent publication US20230085307A1, “PYRIDAZINONE COMPOUND AND HERBICIDE” (NISSAN CHEMICAL CORPORATION, priority 2019, published 2023)

Tests used:
[1] = test system: barnyard grass; assay: Test Example 5: herbicidal effect by foliage application, plastic box (Table 20, symbol H); format: in vivo, barnyard grass (Echinochloa crus-galli); details: foliage application after 14-day growth, evaluated three weeks after application; for herbicidal effect on H: barnyard grass (evaluation grade 0-5): 320 g/ha; for Herbicidal effect by foliage application, H: barnyard grass: amount of applied herbicide 320 g/ha
Procedure, shortened: (§1)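 Post-emergence foliar test in sterilized diluvial soil. Compound applied as water-diluted emulsion at a predetermined rate to 14-day-old plants; evaluation at three weeks.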

[2] = test system: windgrass; assay: Test Example 4: herbicidal effect by soil treatment (Table 19, symbol L); format: in vivo, windgrass (Apera spica-venti); details: amount of applied herbicide 320 g/ha
Procedure, shortened: (§2)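 Emulsion of test compound, water-diluted to predetermined amount, sprayed on soil after sowing (seed depth ~1.5 cm, sterilized diluvial soil). Greenhouse, 25–30° C. Effect graded at three weeks post-spray.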

[3] = test system: velvetleaf; assay: Test Example 5: herbicidal effect by foliage application, plastic box (Table 20, symbol M); format: in vivo, velvetleaf (Abutilon theophrasti); details: foliage application after 14-day growth, evaluated three weeks after application; for herbicidal effect on M: velvetleaf (evaluation grade 0-5): 320 g/ha; for Herbicidal effect by foliage application, M: velvetleaf: amount of applied herbicide 320 g/ha
Procedure, shortened: as §1

[4] = test system: redroot pigweed; assay: Test Example 5: herbicidal effect by foliage application, plastic box (Table 20, symbol N); format: in vivo, redroot pigweed (Amaranthus retroflexus); details: foliage application after 14-day growth, evaluated three weeks after application; for herbicidal effect on N: redroot pigweed (evaluation grade 0-5): 320 g/ha; for Herbicidal effect by foliage application, N: redroot pigweed: amount of applied herbicide 320 g/ha
Procedure, shortened: as §1

[5] = test system: barnyard grass; assay: Test Example 3: herbicidal effect by foliage application, Wagner pot (Table 18, symbol H); format: in vivo, barnyard grass (Echinochloa crus-galli); details: 320 g/ha
Procedure, shortened: (§3)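 Plants were sown in alluvial soil held under 0.1–0.5 cm standing water and grown 14 days in a greenhouse at 25–30 °C. An emulsifiable formulation, water-diluted to the set dose, was then sprayed onto the foliage, and effects were scored three weeks later using previously defined criteria.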

[6] = test system: blackgrass; assay: Test Example 5: herbicidal effect by foliage application, plastic box (Table 20, symbol J); format: in vivo, blackgrass (Alopecurus myosuroides); details: foliage application after 14-day growth, evaluated three weeks after application; for herbicidal effect on J: blackgrass (evaluation grade 0-5): 320 g/ha; for Herbicidal effect by foliage application, J: blackgrass: amount of applied herbicide 320 g/ha
Procedure, shortened: as §1

[7] = test system: velvetleaf; assay: Test Example 4: herbicidal effect by soil treatment (Table 19, symbol M); format: in vivo, velvetleaf (Abutilon theophrasti); details: amount of applied herbicide 320 g/ha
Procedure, shortened: as §2

[8] = test system: persian speedwell; assay: Test Example 4: herbicidal effect by soil treatment (Table 19, symbol R); format: in vivo, Persian speedwell (Veronica persica); details: amount of applied herbicide 320 g/ha
Procedure, shortened: as §2

[9] = test system: windgrass; assay: Test Example 5: herbicidal effect by foliage application, plastic box (Table 20, symbol L); format: in vivo, windgrass (Apera spica-venti); details: foliage application after 14-day growth, evaluated three weeks after application; for herbicidal effect on L: windgrass (evaluation grade 0-5): 320 g/ha; for Herbicidal effect by foliage application, L: windgrass: amount of applied herbicide 320 g/ha
Procedure, shortened: as §1

[10] = test system: green foxtail; assay: Test Example 5: herbicidal effect by foliage application, plastic box (Table 20, symbol G); format: in vivo, green foxtail (Setaria viridis); details: foliage application after 14-day growth, evaluated three weeks after application; for herbicidal effect on G: green foxtail (evaluation grade 0-5): 320 g/ha; for Herbicidal effect by foliage application, G: green foxtail: amount of applied herbicide 320 g/ha
Procedure, shortened: as §1

[11] = test system: southern crabgrass; assay: Test Example 4: herbicidal effect by soil treatment (Table 19, symbol F); format: in vivo, southern crabgrass (Digitaria ciliaris); details: amount of applied herbicide 320 g/ha
Procedure, shortened: as §2

[12] = test system: wild oat; assay: Test Example 5: herbicidal effect by foliage application, plastic box (Table 20, symbol I); format: in vivo, wild oat (Avena fatua); details: foliage application after 14-day growth, evaluated three weeks after application; for herbicidal effect on I: wild oat (evaluation grade 0-5): 320 g/ha; for Herbicidal effect by foliage application, I: wild oat: amount of applied herbicide 320 g/ha
Procedure, shortened: as §1

[13] = test system: late watergrass; assay: Test Example 1: herbicidal activity, application before weed generation under submerged conditions (Table 16, symbol A); format: in vivo, late watergrass (Echinochloa oryzicola); details: amount of applied herbicide 320 g/ha
Procedure, shortened: (§4)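 Submerged Wagner pots (alluvial soil, 4 cm water) sown with weed seeds and planted with 2.5-leaf rice seedlings; emulsifiable concentrate diluted in water applied to water surface on sowing day. Held in greenhouse at 25-30 °C; injury scored 0-5 by herbicidal rate after three weeks.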

[14] = test system: southern crabgrass; assay: Test Example 5: herbicidal effect by foliage application, plastic box (Table 20, symbol F); format: in vivo, southern crabgrass (Digitaria ciliaris); details: foliage application after 14-day growth, evaluated three weeks after application; for herbicidal effect on F: southern crabgrass (evaluation grade 0-5): 320 g/ha; for Herbicidal effect by foliage application, F: southern crabgrass: amount of applied herbicide 320 g/ha
Procedure, shortened: as §1

[15] = test system: Italian ryegrass; assay: Test Example 4: herbicidal effect by soil treatment (Table 19, symbol K); format: in vivo, Italian ryegrass (Lolium multiflorum); details: amount of applied herbicide 320 g/ha
Procedure, shortened: as §2

[16] = test system: rice flat sedge; assay: Test Example 3: herbicidal effect by foliage application, Wagner pot (Table 18, symbol E); format: in vivo, rice flat sedge (Cyperus iria); details: 320 g/ha
Procedure, shortened: as §3

[17] = test system: green foxtail; assay: Test Example 4: herbicidal effect by soil treatment (Table 19, symbol G); format: in vivo, green foxtail (Setaria viridis); details: amount of applied herbicide 320 g/ha
Procedure, shortened: as §2

[18] = test system: Japanese bulrush; assay: Test Example 1: herbicidal activity, application before weed generation under submerged conditions (Table 16, symbol B); format: in vivo, Japanese bulrush (Schoenoplectus juncoides); details: amount of applied herbicide 320 g/ha
Procedure, shortened: as §4

CCCC(=O)Oc1c(C)nn(C)c(=O)c1-c1c(-c2ccc(C(F)(F)F)cc2)sc2c(F)cccc12 [4-045]
herbicidal effect on H: barnyard grass (evaluation grade 0-5) [1]: 2 (Herbicidal rate of 20% or more and less than 40%) | Herbicidal effect by soil treatment, L: windgrass [2]: 3 (Herbicidal rate of 40% or more and less than 70%) | herbicidal effect on M: velvetleaf (evaluation grade 0-5) [3]: 4 (Herbicidal rate of 70% or more and less than 90%) | herbicidal effect on N: redroot pigweed (evaluation grade 0-5) [4]: 4 (Herbicidal rate of 70% or more and less than 90%) | herbicidal effect on barnyard grass (H) [5]: 5 (Herbicidal rate of 90% or more (almost completely withered)) | herbicidal effect on J: blackgrass (evaluation grade 0-5) [6]: 0 (Herbicidal rate of 5% or less (almost no effect)) | Herbicidal effect by soil treatment, M: velvetleaf [7]: 0 (Herbicidal rate of 5% or less (almost no effect)) | Herbicidal effect by soil treatment, R: persian speedwell [8]: 3 (Herbicidal rate of 40% or more and less than 70%) | herbicidal effect on L: windgrass (evaluation grade 0-5) [9]: 4 (Herbicidal rate of 70% or more and less than 90%) | herbicidal effect on G: green foxtail (evaluation grade 0-5) [10]: 0 (Herbicidal rate of 5% or less (almost no effect)) | Herbicidal effect by soil treatment, F: southern crabgrass [11]: 0 (Herbicidal rate of 5% or less (almost no effect)) | herbicidal effect on I: wild oat (evaluation grade 0-5) [12]: 0 (Herbicidal rate of 5% or less (almost no effect)) | Herbicidal effect, A: late watergrass [13]: 4 (Herbicidal rate of 70% or more and less than 90%) | herbicidal effect on F: southern crabgrass (evaluation grade 0-5) [14]: 0 (Herbicidal rate of 5% or less (almost no effect)) | Herbicidal effect by soil treatment, K: Italian ryegrass [15]: 0 (Herbicidal rate of 5% or less (almost no effect)) | herbicidal effect on rice flat sedge (E) [16]: 5 (Herbicidal rate of 90% or more (almost completely withered)) | Herbicidal effect by soil treatment, G: green foxtail [17]: 0 (Herbicidal rate of 5% or less (almost no effect)) | Herbicidal effect, B: Japanese bulrush [18]: 2 (Herbicidal rate of 20% or more and less than 40%)

Cc1nn(C)c(=O)c(-c2c(-c3ccc(Cl)c(F)c3)sc3c(F)cccc23)c1O [4-054]
herbicidal effect on H: barnyard grass (evaluation grade 0-5) [1]: 4 (Herbicidal rate of 70% or more and less than 90%) | Herbicidal effect by soil treatment, L: windgrass [2]: 0 (Herbicidal rate of 5% or less (almost no effect)) | herbicidal effect on M: velvetleaf (evaluation grade 0-5) [3]: 5 (Herbicidal rate of 90% or more (almost completely withered)) | herbicidal effect on N: redroot pigweed (evaluation grade 0-5) [4]: 5 (Herbicidal rate of 90% or more (almost completely withered)) | herbicidal effect on barnyard grass (H) [5]: 2 (Herbicidal rate of 20% or more and less than 40%) | herbicidal effect on J: blackgrass (evaluation grade 0-5) [6]: 0 (Herbicidal rate of 5% or less (almost no effect)) | Herbicidal effect by soil treatment, M: velvetleaf [7]: 0 (Herbicidal rate of 5% or less (almost no effect)) | Herbicidal effect by soil treatment, R: persian speedwell [8]: 4 (Herbicidal rate of 70% or more and less than 90%) | herbicidal effect on L: windgrass (evaluation grade 0-5) [9]: 0 (Herbicidal rate of 5% or less (almost no effect)) | herbicidal effect on G: green foxtail (evaluation grade 0-5) [10]: 3 (Herbicidal rate of 40% or more and less than 70%) | Herbicidal effect by soil treatment, F: southern crabgrass [11]: 0 (Herbicidal rate of 5% or less (almost no effect)) | herbicidal effect on I: wild oat (evaluation grade 0-5) [12]: 0 (Herbicidal rate of 5% or less (almost no effect)) | Herbicidal effect, A: late watergrass [13]: 3 (Herbicidal rate of 40% or more and less than 70%) | herbicidal effect on F: southern crabgrass (evaluation grade 0-5) [14]: 2 (Herbicidal rate of 20% or more and less than 40%) | Herbicidal effect by soil treatment, K: Italian ryegrass [15]: 0 (Herbicidal rate of 5% or less (almost no effect)) | herbicidal effect on rice flat sedge (E) [16]: 0 (Herbicidal rate of 5% or less (almost no effect)) | Herbicidal effect by soil treatment, G: green foxtail [17]: 0 (Herbicidal rate of 5% or less (almost no effect)) | Herbicidal effect, B: Japanese bulrush [18]: 3 (Herbicidal rate of 40% or more and less than 70%)

Cc1nn(C)c(=O)c(-c2c(-c3ccc(Cl)cc3)sc3c(C)cccc23)c1O [4-102]
Herbicidal effect by foliage application, H: barnyard grass [1]: 0 (Herbicidal rate of 5% or less (almost no effect)) | Herbicidal effect by soil treatment, L: windgrass [2]: 0 (Herbicidal rate of 5% or less (almost no effect)) | Herbicidal effect by foliage application, M: velvetleaf [3]: 5 (Herbicidal rate of 90% or more (almost completely withered)) | Herbicidal effect by foliage application, N: redroot pigweed [4]: 5 (Herbicidal rate of 90% or more (almost completely withered)) | herbicidal effect on barnyard grass (H) [5]: 1 (Herbicidal rate of 5% or more and less than 20%) | Herbicidal effect by foliage application, J: blackgrass [6]: 0 (Herbicidal rate of 5% or less (almost no effect)) | Herbicidal effect by soil treatment, M: velvetleaf [7]: 2 (Herbicidal rate of 20% or more and less than 40%) | Herbicidal effect by soil treatment, R: persian speedwell [8]: 0 (Herbicidal rate of 5% or less (almost no effect)) | Herbicidal effect by foliage application, L: windgrass [9]: 0 (Herbicidal rate of 5% or less (almost no effect)) | Herbicidal effect by foliage application, G: green foxtail [10]: 0 (Herbicidal rate of 5% or less (almost no effect)) | Herbicidal effect by soil treatment, F: southern crabgrass [11]: 0 (Herbicidal rate of 5% or less (almost no effect)) | Herbicidal effect by foliage application, I: wild oat [12]: 0 (Herbicidal rate of 5% or less (almost no effect)) | Herbicidal effect, A: late watergrass [13]: 4 (Herbicidal rate of 70% or more and less than 90%) | Herbicidal effect by foliage application, F: southern crabgrass [14]: 0 (Herbicidal rate of 5% or less (almost no effect)) | Herbicidal effect by soil treatment, K: Italian ryegrass [15]: 3 (Herbicidal rate of 40% or more and less than 70%) | herbicidal effect on rice flat sedge (E) [16]: 5 (Herbicidal rate of 90% or more (almost completely withered)) | Herbicidal effect by soil treatment, G: green foxtail [17]: 0 (Herbicidal rate of 5% or less (almost no effect)) | Herbicidal effect, B: Japanese bulrush [18]: 0 (Herbicidal rate of 5% or less (almost no effect))

CCCC(=O)Oc1c(C)nn(C)c(=O)c1-c1c(-c2ccc(C#N)cc2)sc2cc(F)c(F)cc12 [5-026]
Herbicidal effect by foliage application, H: barnyard grass [1]: 0 (Herbicidal rate of 5% or less (almost no effect)) | L: windgrass, herbicidal effect grade [2]: 0 (Herbicidal rate of 5% or less (almost no effect)) | Herbicidal effect by foliage application, M: velvetleaf [3]: 3 (Herbicidal rate of 40% or more and less than 70%) | Herbicidal effect by foliage application, N: redroot pigweed [4]: 2 (Herbicidal rate of 20% or more and less than 40%) | herbicidal effect on barnyard grass (H) [5]: 3 (Herbicidal rate of 40% or more and less than 70%) | Herbicidal effect by foliage application, J: blackgrass [6]: 0 (Herbicidal rate of 5% or less (almost no effect)) | M: velvetleaf, herbicidal effect grade [7]: 0 (Herbicidal rate of 5% or less (almost no effect)) | R: persian speedwell, herbicidal effect grade [8]: 4 (Herbicidal rate of 70% or more and less than 90%) | Herbicidal effect by foliage application, L: windgrass [9]: 0 (Herbicidal rate of 5% or less (almost no effect)) | Herbicidal effect by foliage application, G: green foxtail [10]: 0 (Herbicidal rate of 5% or less (almost no effect)) | F: southern crabgrass, herbicidal effect grade [11]: 0 (Herbicidal rate of 5% or less (almost no effect)) | Herbicidal effect by foliage application, I: wild oat [12]: 1 (Herbicidal rate of 5% or more and less than 20%) | Herbicidal effect, A: late watergrass [13]: 3 (Herbicidal rate of 40% or more and less than 70%) | Herbicidal effect by foliage application, F: southern crabgrass [14]: 0 (Herbicidal rate of 5% or less (almost no effect)) | K: Italian ryegrass, herbicidal effect grade [15]: 0 (Herbicidal rate of 5% or less (almost no effect)) | herbicidal effect on rice flat sedge (E) [16]: 5 (Herbicidal rate of 90% or more (almost completely withered)) | G: green foxtail, herbicidal effect grade [17]: 0 (Herbicidal rate of 5% or less (almost no effect)) | Herbicidal effect, B: Japanese bulrush [18]: 0 (Herbicidal rate of 5% or less (almost no effect))
